Test results: US9920339B2, “Methods, reagents and cells for biosynthesizing compounds” (INVISTA North America S.á r.l., priority 2014, dated 2018)

Tests used:
Type in all cases: biochemical
[1] = target: T1, Mycobacterium marinum carboxylate reductase (SEQ ID NO: 2), enhanced by the gene product of sfp (Mycobacterium marinum, UniProt B2HN69); assay: carboxylate reductase enzyme activity assay, NADPH consumption at 340 nm; details: SEQ ID NO 2 with sfp; 2 mM substrate, 10 mM MgCl2, 1 mM ATP, 1 mM NADPH, pH 7.5, room temperature, 20 min; absorbance at 340 nm
T1 construct: His-tag (N); made in house; host or cells: E. coli BL21[DE3], pET Duet
Description: (§1) A nucleotide sequence encoding a His-tag was added to the genes from Mycobacterium marinum, Mycobacterium smegmatis, Segniliparus rugosus, Mycobacterium massiliense, and Segniliparus rotundus that encode the carboxylate reductases of SEQ ID NOs: 2-4, 6 and 7, respectively (GenBank Accession Nos. ACC40567.1, ABK71854.1, EFV11917.1, EIV11143.1, and ADG98140.1, respectively) (see FIG. 10) such that N-terminal HIS tagged carboxylate reductases could be produced. Each of the modified genes was cloned into a pET Duet expression vector alongside a sfp gene encoding a His-tagged phosphopantetheine transferase from Bacillus subtilis, both under control of the T7 promoter. Each expression vector was transformed into a BL21[DE3] E. coli host along with the expression vectors from Example 3. Each resulting recombinant E. coli strain was cultivated at 37° C. in a 250 mL shake flask culture containing 50 mL LB media and antibiotic selection pressure, with shaking at 230 rpm. Each culture was induced overnight at 37° C. using an auto-induction media.
(§2) The pellet from each induced shake flask culture was harvested via centrifugation. Each pellet was resuspended and lysed via sonication. The cell debris was separated from the supernatant via centrifugation. The carboxylate reductases and phosphopantetheine transferase were purified from the supernatant using Ni-affinity chromatography, diluted 10-fold into 50 mM HEPES buffer (pH=7.5) and concentrated via ultrafiltration.
(§3) Enzyme activity (i.e., 5-hydroxypentanoate to 5-hydroxypentanal) assays were performed in triplicate in a buffer composed of a final concentration of 50 mM HEPES buffer (pH=7.5), 2 mM 5-hydroxypentanal, 10 mM MgCl2, 1 mM ATP, and 1 mM NADPH. Each enzyme activity assay reaction was initiated by adding purified carboxylate reductase and phosphopantetheine transferase or the empty vector control to the assay buffer containing the 5-hydroxypentanoate and then incubated at room temperature for 20 min. The consumption of NADPH was monitored by absorbance at 340 nm.
(§4) The N-terminal His-tagged carboxylate reductase of SEQ ID NO 2-4 and 7 (see Example 2 and FIG. 10) was assayed using glutarate methyl ester as substrate. The enzyme activity assay was performed in triplicate in a buffer composed of a final concentration of 50 mM HEPES buffer (pH=7.5), 2 mM glutarate methyl ester, 10 mM MgCl2, 1 mM ATP and 1 mM NADPH. The enzyme activity assay reaction was initiated by adding purified carboxylate reductase and phosphopantetheine transferase or the empty vector control to the assay buffer containing the glutarate semialdehyde and then incubated at room temperature for 20 min. The consumption of NADPH was monitored by absorbance at 340 nm.

[2] = tested on: Mycobacterium smegmatis carboxylate reductase (SEQ ID NO: 3), enhanced by the gene product of sfp; assay: as above; details: SEQ ID NO 3 with sfp; 2 mM substrate, 10 mM MgCl2, 1 mM ATP, 1 mM NADPH, pH 7.5, room temperature, 20 min; absorbance at 340 nm
Description: as §1, §2, §3, §4

[3] = tested on: Segniliparus rugosus carboxylate reductase (SEQ ID NO: 4), enhanced by the gene product of sfp; assay: as above; details: SEQ ID NO 4 with sfp; 2 mM substrate, 10 mM MgCl2, 1 mM ATP, 1 mM NADPH, pH 7.5, room temperature, 20 min; absorbance at 340 nm
Description: as §1, §2, §3, §4

[4] = tested on: Mycobacterium massiliense carboxylate reductase (SEQ ID NO: 6), enhanced by the gene product of sfp; assay: as above; details: SEQ ID NO 6 with sfp; 2 mM substrate, 10 mM MgCl2, 1 mM ATP, 1 mM NADPH, pH 7.5, room temperature, 20 min; absorbance at 340 nm
Description: as §1, with “media. […]” for “media.”
(§5) Enzyme activity (i.e., 5-hydroxypentanoate to 5-hydroxypentanal) assays were performed in triplicate in a buffer composed of a final concentration of 50 mM HEPES buffer (pH=7.5), 2 mM 5-hydroxypentanal, 10 mM MgCl2, 1 mM ATP, and 1 mM NADPH. […] The consumption of NADPH was monitored by absorbance at 340 nm.

[5] = tested on: Segniliparus rotundus carboxylate reductase (SEQ ID NO: 7), enhanced by the gene product of sfp; assay: as above; details: SEQ ID NO 7 with sfp; 2 mM substrate, 10 mM MgCl2, 1 mM ATP, 1 mM NADPH, pH 7.5, room temperature, 20 min; absorbance at 340 nm
Description: as §1
The pellet from each induced shake flask culture was harvested via centrifugation. Each pellet was resuspended and lysed via sonication. The cell debris was separated from the supernatant via centrifugation. […]
as §5
The N-terminal His-tagged carboxylate reductase of SEQ ID NO 7 (see Example 2 and FIG. 10) was assayed using glutarate semialdehyde as substrate. […] The consumption of NADPH was monitored by absorbance at 340 nm.
The N-terminal His-tagged carboxylate reductase of SEQ ID NO 2-4 and 7 (see Example 2 and FIG. 10) was assayed using glutarate methyl ester as substrate. […] The consumption of NADPH was monitored by absorbance at 340 nm.

[6] = target: T2, Escherichia coli pimeloyl-[acp] methyl ester methylesterase (SEQ ID NO: 1) (Escherichia coli, UniProt P13001); assay: pimeloyl-[acp] methyl ester methylesterase enzyme activity assay, glutaryl-CoA formation by LC-MS; details: SEQ ID NO 1, 10 μM enzyme; 5 mM glutaryl-CoA methyl ester, 25 mM Tris.HCl pH 7.0, 30° C., 1 h
T2 construct: His-tag (C); made in house; host or cells: E. coli BL21[DE3], pET28b+
Description: A sequence encoding an C-terminal His-tag was added to the gene from Escherichia coli encoding the pimeloyl-[acp] methyl ester methylesterase of SEQ ID NO: 1 (see FIG. 10) such that C-terminal HIS tagged pimeloyl-[acp] methyl ester methylesterase could be produced. The resulting modified gene was cloned into a pET28b+ expression vector under control of the T7 promoter and the expression vector was transformed into a BL21[DE3] E. coli host. The resulting recombinant E. coli strain was cultivated at 37° C. in a 500 mL shake flask culture containing 100 mL LB media and antibiotic selection pressure, with shaking at 230 rpm. Each culture was induced overnight at 18° C. using 0.3 mM IPTG.
The pellet from each induced shake flask culture was harvested via centrifugation. Each pellet was resuspended and lysed via sonication. The cell debris was separated from the supernatant via centrifugation. The pimeloyl-[acp] methyl ester methylesterase was purified from the supernatant using Ni-affinity chromatography, buffer exchanged and concentrated into 20 mM HEPES buffer (pH=7.5) via ultrafiltration and stored at 4° C.
Enzyme activity assays converting glutaryl-CoA methyl ester to glutaryl-CoA were performed in triplicate in a buffer composed of a final concentration of 25 mM Tris.HCl buffer (pH=7.0) and 5 [mM] glutaryl-CoA methyl ester. […] The formation of glutaryl-CoA was quantified via LC-MS.

T2 sequence (P13001 whole entry): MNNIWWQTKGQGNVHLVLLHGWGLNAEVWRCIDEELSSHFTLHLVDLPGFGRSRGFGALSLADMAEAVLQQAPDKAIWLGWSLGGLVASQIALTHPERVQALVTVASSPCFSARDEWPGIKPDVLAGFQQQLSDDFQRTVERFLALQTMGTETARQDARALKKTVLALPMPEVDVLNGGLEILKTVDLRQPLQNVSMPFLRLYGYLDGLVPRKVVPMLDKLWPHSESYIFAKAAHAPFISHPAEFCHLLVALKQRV
T1 sequence (B2HN69 whole entry): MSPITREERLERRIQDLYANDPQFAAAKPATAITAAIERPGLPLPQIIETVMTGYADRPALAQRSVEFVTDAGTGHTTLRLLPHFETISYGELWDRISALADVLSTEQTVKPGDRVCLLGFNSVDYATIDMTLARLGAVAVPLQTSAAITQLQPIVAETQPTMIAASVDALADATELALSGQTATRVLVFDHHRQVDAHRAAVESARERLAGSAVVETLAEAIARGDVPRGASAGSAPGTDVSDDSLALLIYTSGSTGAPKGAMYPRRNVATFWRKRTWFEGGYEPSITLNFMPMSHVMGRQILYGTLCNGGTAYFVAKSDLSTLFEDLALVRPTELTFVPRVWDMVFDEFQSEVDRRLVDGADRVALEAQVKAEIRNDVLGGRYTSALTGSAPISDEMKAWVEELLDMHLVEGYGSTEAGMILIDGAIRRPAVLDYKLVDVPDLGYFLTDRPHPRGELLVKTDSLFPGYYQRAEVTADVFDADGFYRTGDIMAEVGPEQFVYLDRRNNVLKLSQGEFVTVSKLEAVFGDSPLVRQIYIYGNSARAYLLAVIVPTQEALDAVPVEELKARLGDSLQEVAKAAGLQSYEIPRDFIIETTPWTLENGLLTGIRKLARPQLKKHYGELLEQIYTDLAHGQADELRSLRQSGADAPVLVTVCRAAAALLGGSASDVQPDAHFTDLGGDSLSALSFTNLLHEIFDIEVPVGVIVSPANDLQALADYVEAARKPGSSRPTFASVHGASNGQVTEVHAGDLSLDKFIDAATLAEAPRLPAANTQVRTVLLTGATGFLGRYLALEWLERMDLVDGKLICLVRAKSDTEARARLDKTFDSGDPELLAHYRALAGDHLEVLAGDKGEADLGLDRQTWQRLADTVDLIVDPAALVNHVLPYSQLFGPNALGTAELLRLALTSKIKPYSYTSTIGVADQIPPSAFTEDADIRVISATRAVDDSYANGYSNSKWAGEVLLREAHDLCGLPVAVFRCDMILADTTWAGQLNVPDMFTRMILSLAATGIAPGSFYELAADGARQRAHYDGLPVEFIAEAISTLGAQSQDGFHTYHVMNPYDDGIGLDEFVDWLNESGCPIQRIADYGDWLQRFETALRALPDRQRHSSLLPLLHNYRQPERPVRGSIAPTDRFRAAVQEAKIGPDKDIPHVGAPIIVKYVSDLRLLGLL

O=C(O)CCCCO [5-hydroxypentanoate]
accepted: accepted as substrate as confirmed against the empty vector control [1] | accepted as substrate as confirmed against the empty vector control [2] | accepted as substrate as confirmed against the empty vector control [3] | accepted as substrate as confirmed against the empty vector control [4] | accepted as substrate as confirmed against the empty vector control [5]

COC(=O)CCCC(=O)SCCNC(=O)CCNC(=O)C(O)C(C)(C)COP(=O)(O)OP(=O)(O)OCC1OC(n2cnc3c(N)ncnc32)C(O)C1OP(=O)(O)O (stereo not drawn) [glutaryl-CoA methyl ester]
accepted: accepted as substrate, glutaryl-CoA synthesized as reaction product as confirmed via LC-MS [6]
